Laboratory results taken from patent EP0423133B1, “ENZYMATIC RESOLUTION SYSTEMS AND COMPOUNDS USEFUL IN THE SYSTEMS AND THEIR REPARATIONS” (priority 1988, dated 1989).
Counter-ions that a name gives are not always drawn.

Tests used:
[1] = test system: Prozyme 6; assay: Homogeneous aqueous enzymatic resolution (ester hydrolysis) with enzyme F; format: biochemical, Aspergillus oryzae; conditions: for Conversion in Homogeneous Aqueous Reaction System: 30 °C
[2] = test system: lipase from Candida cylindracea (Lipase OF); assay: Activity of the carrier lipase against the ester; format: biochemical; conditions: Meito Sangyo Company
[3] = test system: Prozyme 6; assay: Asymmetric hydrolysis in an extractive membrane reactor with enzyme F; format: biochemical, Aspergillus oryzae; conditions: for enantiomeric excess: chiral HPLC, enzyme in aqueous phase only, 6.3 hours
[4] = test system: Protease XXIII; assay: Homogeneous aqueous enzymatic resolution (ester hydrolysis) with enzyme A; format: biochemical, Aspergillus oryzae; conditions: 10.0 mmol ester in 100 ml 0.2 M phosphate buffer pH 7.0, 100 mg enzyme A, 20-22 °C, 20 hours
Method: The enzymes used in Examples 6.2.1.1-6.2.1.17, 6.2.1.20-6.2.1.21, 6.2.1.23-6.2.1.28, 6.2.2.7, and 6.2.3.1-6.2.3.5 that follow were all proteases commercially available from Sigma Chemical Co., St. Louis, MO. […] For examples 6.2.2.5-6.2.2.6, Candida lipase obtained from Genzyme Corporation was used.
No further purification was performed.
The aqueous layer was retained.

[5] = molecular target: T1, Protease XXVII: "Nagarse" (Bacillus amyloliquefaciens, UniProt P00782); assay: Homogeneous aqueous enzymatic resolution (ester hydrolysis) with enzyme D; format: biochemical; conditions: 10.0 mmol ester in 100 ml 0.2 M phosphate buffer pH 7.0, 100 mg enzyme D, 20-22 °C, 20 hours
T1 sequence (P00782 108-382): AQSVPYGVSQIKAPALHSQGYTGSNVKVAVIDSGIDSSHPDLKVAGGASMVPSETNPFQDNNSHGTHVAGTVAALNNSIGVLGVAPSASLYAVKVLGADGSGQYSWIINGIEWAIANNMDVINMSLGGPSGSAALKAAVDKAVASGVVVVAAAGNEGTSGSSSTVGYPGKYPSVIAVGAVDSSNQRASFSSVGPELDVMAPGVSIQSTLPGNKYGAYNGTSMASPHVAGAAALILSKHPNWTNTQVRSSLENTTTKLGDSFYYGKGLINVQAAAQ
Description: (§1) The enzymes used in Examples 6.2.1.1-6.2.1.17, 6.2.1.20-6.2.1.21, 6.2.1.23-6.2.1.28, 6.2.2.7, and 6.2.3.1-6.2.3.5 that follow were all proteases commercially available from Sigma Chemical Co., St. Louis, MO. These proteases are listed in each example using the Sigma numbering system, which is summarized below: • Protease VIII: "Subtilopeptidase A", product P-5380 (also known as subtilisin Carlsberg) • Protease XIV: from Streptomyces griseus, product P-5147 • Protease XVI: from Bacillus subtilis, product P-8775 • Protease XXIII: from Aspergillus oryzae, product P-4032 • Protease XXVII: "Nagarse", product P-4789 • Protease XXIV: bacterial protease, product P-8038 An additional protease enzyme, which was designated Prozyme 6, was obtained from the Amano Enzyme Corporation and used in Examples 6.2.1.18-6.2.19, 6.2.1.22, 6.2.1.29-6.2.1.30 and 6.2.2.1-6.2.2.4 described below. A pig liver esterase was used in Example 6.21.11; this enzyme, obtained from Sigma Chemical Company, was designated as their product E-3128. For examples 6.2.2.5-6.2.2.6, Candida lipase obtained from Genzyme Corporation was used. Finally, Candida lipase, product L-1754, obtained from Sigma Chemical Co. was used in Example 6.2.2.7.

[6] = test system: Prozyme 6; assay: Asymmetric hydrolysis in an extractive dispersion reactor with enzyme F; format: biochemical, Aspergillus oryzae; conditions: 3.38 gm ester in 100 ml 0.2 M sodium phosphate buffer pH 7.0 and 100 ml hexane, 100 mg Prozyme 6, 3.5 hours at room temperature, vigorous stirring
Method: In this Example, the hexane was dispersed in the reaction vessel to extract the inhibitory ibuprofen acid as it is formed. The
reaction was started by adding 100 mg of the protease from the fungus Aspergillus oryzae (from Amano Enzyme Corporation, Prozyme 6, 60,000 units per mg of solid).
After 3.5 hours at room temperature with vigorous stirring, the solution was acidified to pH 2 and extracted with 2 volumes of hexane. The aqueous phase was saved for subsequent workup. The hexane phase was dried over MgS04 and evaporated to dryness. The resolved ibuprofen product so recovered consisted of 490 mg of white powder, indicating 24% conversion. The optical rotation was -0.568 (c = 1.015 in ethanol), indicating the R isomer of ibuprofen.

[7] = molecular target: T2, Protease VIII: "Subtilopeptidase A" (Bacillus licheniformis, UniProt P00780); assay: Homogeneous aqueous enzymatic resolution (ester hydrolysis) with enzyme B; format: biochemical; conditions: 10.0 mmol ester in 100 ml 0.2 M phosphate buffer pH 7.0, 100 mg enzyme B, 20-22 °C, 20 hours
T2 sequence (P00780 106-379): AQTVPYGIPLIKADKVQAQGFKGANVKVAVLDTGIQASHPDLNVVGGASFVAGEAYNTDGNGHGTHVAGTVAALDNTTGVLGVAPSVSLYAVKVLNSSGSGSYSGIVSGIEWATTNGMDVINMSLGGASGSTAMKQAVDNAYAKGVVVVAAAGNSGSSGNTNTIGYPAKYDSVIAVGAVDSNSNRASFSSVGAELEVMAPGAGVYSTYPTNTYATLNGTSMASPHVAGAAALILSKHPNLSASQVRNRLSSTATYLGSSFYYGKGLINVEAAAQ

[8] = test system: Protease XVI; assay: Homogeneous aqueous enzymatic resolution (ester hydrolysis) with enzyme C; format: biochemical, Bacillus subtilis; conditions: 10.0 mmol ester in 100 ml 0.2 M phosphate buffer pH 7.0, 100 mg enzyme C, 20-22 °C, 20 hours
Description: as §1

[9] = test system: intact microorganism; conditions: 400 mg dried cells, 160 mg (±)-substrate; Iriuchijima and Keiyu 1981; cited from earlier work
[10] = test system: Candida lipase (Genzyme Corporation); assay: Asymmetric hydrolysis in a multiphase membrane bioreactor with enzyme G; format: biochemical, Candida cylindracea; conditions: first 45 minutes; 0.75M ester in MIBK, 3.0 grams lipase in membrane, pH 8.50
Description: The module was then drained.
This material was recrystallized from hexane.

[11] = test system: Protease XXIV: bacterial protease; assay: Rate of hydrolysis of single enantiomers by pH stat, enzyme J; format: biochemical; conditions: for Rate: 50 mM single enantiomer, 50 mM buffer pH 7.6, Example 6.2.3.4 (Enzyme J in text, (H) in table)
Method: (§2) 15 ml of a solution containing one enantiomer of the ester at a concentration of 50 mM, and Na3PO4 buffer at 50 mM and pH 7.6 was observed using a pH stat device. 0.1 ml of a 50 mg/ml solution of Enzyme J, made up from the commercially available preparation in 50 mM Na3PO4 buffer at pH 7.6, were added. Rates of hydrolysis of both enantiomers of the ester compound were determined for the enzyme. The ratio of the rates of hydrolysis for the two enantiomers for the two enantiomers with respect to the enzyme indicate the stereospecificity of that enzyme's hydrolytic action on the racemic mixture of the ester. No evidence for the hydrolysis of the acetylthio ester portion of the substrate molecule was found.

[12] = test system: Protease XIV; assay: Rate of hydrolysis of single enantiomers by pH stat, enzyme I; format: biochemical, Streptomyces griseus; conditions: for Rate: 50 mM single enantiomer, 50 mM buffer pH 7.6, Example 6.2.3.2 (enzyme I in text, (G) in table)
Method: as §2, with “solution of protease enzyme I, made up” for “solution of Enzyme J, made up”, “for the protease enzyme. The” for “for the enzyme. The”, “ester. No” for “ester. No evidence for the hydrolysis of the acetylthio ester portion of the substrate molecule was found.”
evidence for the hydrolysis of the acetylthio ester portion of the substrate molecule was found.

[13] = test system: Protease XXIII; assay: Rate of hydrolysis of single enantiomers by pH stat, enzyme A; format: biochemical, Aspergillus oryzae; conditions: for Rate: 50 mM single enantiomer, 50 mM buffer pH 7.6, enzyme A
Method: as §2, with “of enzyme A,” for “of Enzyme J,”, “mM Na3 P04” for “mM Na3PO4”

[14] = molecular target: T2, Protease VIII: "Subtilopeptidase A"; assay: Rate of hydrolysis of single enantiomers by pH stat, enzyme B; format: biochemical; conditions: for Rate: 50 mM single enantiomer, 50 mM buffer pH 7.6, enzyme B
Method: as §2, with “of enzyme B,” for “of Enzyme J,”, “mM Na3 P04” for “mM Na3PO4”

[15] = molecular target: T1, Protease XXVII: "Nagarse"; assay: Rate of hydrolysis of single enantiomers by pH stat, enzyme D; format: biochemical; conditions: for Rate: 50 mM single enantiomer, 50 mM buffer pH 7.6, enzyme D
Method: as §2, with “of enzyme D,” for “of Enzyme J,”, “mM Na3 P04” for “mM Na3PO4”, “the thioacetyl” for “the acetylthio”

CC(C)Cc1ccc(C(C)C(=O)OCS(=O)(=O)O)cc1 (racemic) [Compound 1, Sodium Salt of 4-Sulfomethyl Ester of 2-(4-Isobutylphenyl) propanoic Acid]
conversion of racemic ester to acid ([1]; 3.22 gm ester in 100 ml 0.2 M sodium phosphate buffer pH 7.0, 100 mg protease (F), 20 hours at room temperature): 45% | conversion ([1]; After 6.49 hours at 30 °C, 0.5 M ester in 325 ml 0.1 M sodium phosphate buffer pH 7.0, 3 gm enzyme (F)): 37.7% | Conversion in Homogeneous Aqueous Reaction System ([1]; Time 6.75 hrs, 0.5 M ester in 325 ml 0.1 M sodium phosphate buffer pH 7.0, 3 gm enzyme (F)): 37.7% | Conversion in Homogeneous Aqueous Reaction System ([1]; Time 23.1 hrs, 0.5 M ester in 325 ml 0.1 M sodium phosphate buffer pH 7.0, 3 gm enzyme (F)): 40.9% | activity of the enzyme against the ester [2]: inactive | enantiomeric excess ([3]; R ibuprofen acid product): 99.3% | enantiomeric excess ([3]; S ibuprofen from hydrolysis (pH 12) of the unconverted ester): 98.9% | conversion of the racemic ester to the acid ([3]; enzyme in aqueous phase and in membrane pores (polyacrylonitrile fibers, 80% cyclohexane:20% toluene), 0.5 M ester, 3 gm protease (F), 6.75 hours at 30 °C): 48.3% | conversion of the racemic ester to ibuprofen acid ([3]; enzyme in aqueous phase only (cellulose dialysis fibers, hexane), 32.51 gm ester in 1000 ml 0.1 M sodium phosphate buffer pH 7.0, 2 gm protease (F), 6.3 hours at room temperature): 50% | % CONVERSION [4]: 37.9% | % e.e. ([4]; acid product, R): >99% | % CONVERSION [5]: 34.0% | % e.e. ([5]; acid product, R): 37.7% | conversion [6]: 24% | % CONVERSION [7]: 29.1% | % e.e. ([7]; acid product, R): 44.6% | % CONVERSION [8]: 27.2% | % e.e. ([8]; acid product, R): 70.7%

COC(=O)C(C)c1ccc2cc(OC)ccc2c1 (racemic) [Compound 18, Methyl Ester of 2-(6-Methoxy-2-naphthyl)propanoic Acid]
substrate converted [9]: 16.3% | average rate [10]: 35 amol/hr

CC(=O)SC[C@@H](C)C(=O)OCS(=O)(=O)O [Compound 14, Potassium Salt of the Sulfomethyl Ester of D-(-)-S-3-Acetylthio-2-methylpropanoic Acid]
Rate [11]: 61 umols/hr/mg | Rate [12]: 63 umols/hr/mg | Rate [13]: 5.3 umols/hr/mg | Rate [14]: 65 umols/hr/mg | Rate [15]: 27 umols/hr/mg

CC(=O)SC[C@H](C)C(=O)OCS(=O)(=O)O [Compound 15, Potassium Salt of the Sulfomethyl Ester of L-(+)-S-3-Acetylthio-2-methylpropanoic Acid]
Rate [11]: 65 umols/hr/mg | Rate Ratio L/D ([11]; Example 6.2.3.4, pH 7.6): 1.1 | Rate [12]: 105 umols/hr/mg | Rate Ratio L/D ([12]; Example 6.2.3.2, pH 7.6): 1.7 | Rate [13]: 12 umols/hr/mg | Rate Ratio L/D ([13]; enzyme A, pH 7.6): 2.3 | Rate [14]: 135 umols/hr/mg | Rate Ratio L/D ([14]; enzyme B, pH 7.6): 2.1 | Rate [15]: 29 umols/hr/mg | Rate Ratio L/D ([15]; enzyme D, pH 7.6): 1.1
